The source of these data is patent US11827657B2, “Boron containing pyrazole compounds, compositions comprising them, methods and uses thereof” (BOEHRINGER INGELHEIM ANIMAL HEALTH USA INC., priority 2020, dated 2023).

Some results are limits rather than exact numbers.

JAK1, sequence (P23458 whole entry, species assumed): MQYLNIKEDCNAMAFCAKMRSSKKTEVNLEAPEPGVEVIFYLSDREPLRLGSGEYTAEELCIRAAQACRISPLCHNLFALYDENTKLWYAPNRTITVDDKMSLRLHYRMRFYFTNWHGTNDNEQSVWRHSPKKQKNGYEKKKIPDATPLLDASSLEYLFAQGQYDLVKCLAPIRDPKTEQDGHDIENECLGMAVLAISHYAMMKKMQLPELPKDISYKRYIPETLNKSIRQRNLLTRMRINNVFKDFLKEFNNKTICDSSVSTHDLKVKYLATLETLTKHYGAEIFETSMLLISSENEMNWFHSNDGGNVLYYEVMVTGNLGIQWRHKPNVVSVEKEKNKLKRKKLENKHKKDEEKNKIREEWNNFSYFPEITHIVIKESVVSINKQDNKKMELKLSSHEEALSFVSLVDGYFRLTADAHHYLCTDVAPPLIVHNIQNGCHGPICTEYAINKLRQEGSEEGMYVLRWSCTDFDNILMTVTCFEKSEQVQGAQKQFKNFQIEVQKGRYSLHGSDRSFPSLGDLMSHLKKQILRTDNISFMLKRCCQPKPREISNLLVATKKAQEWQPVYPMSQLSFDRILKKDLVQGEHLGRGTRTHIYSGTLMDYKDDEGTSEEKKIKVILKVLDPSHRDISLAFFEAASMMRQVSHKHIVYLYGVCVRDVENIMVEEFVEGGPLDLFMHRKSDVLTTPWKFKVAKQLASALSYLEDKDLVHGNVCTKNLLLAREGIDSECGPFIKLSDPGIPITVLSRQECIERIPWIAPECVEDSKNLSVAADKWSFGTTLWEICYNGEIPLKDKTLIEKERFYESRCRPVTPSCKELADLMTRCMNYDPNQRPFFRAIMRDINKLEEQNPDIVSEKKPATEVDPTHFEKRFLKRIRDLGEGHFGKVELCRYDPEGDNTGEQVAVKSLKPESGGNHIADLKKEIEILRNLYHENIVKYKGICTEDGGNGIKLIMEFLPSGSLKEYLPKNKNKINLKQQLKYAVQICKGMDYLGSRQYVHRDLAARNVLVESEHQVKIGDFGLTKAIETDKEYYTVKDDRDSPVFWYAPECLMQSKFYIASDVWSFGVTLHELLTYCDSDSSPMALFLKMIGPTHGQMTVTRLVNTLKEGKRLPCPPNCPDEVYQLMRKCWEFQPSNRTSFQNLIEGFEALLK

The target of this experiment is JAK1 (Homo sapiens, UniProt P23458). The experiment can be described thus: Biochemical Kinase Assay (JAK), 33P-ATP filter-binding. The conditions noted are these: Biochemical Kinase Inhibition Assay; potency level of IC50; read-out: JAK1 (range). The method, then:
Biochemical Kinase Assay Protocol (JAK) • Reagent: Base Reaction buffer; 20 mM Hepes (pH 7.5), 10 mM MgCl2, 1 mM EGTA, 0.02% Brij™ 35, 0.02 mg/ml BSA, 0.1 mM Na3VO4, 2 mM DTT, 1% DMSO, where required cofactors were added individually to each kinase reaction.
Reaction Procedure: • 1. Prepared indicated substrate in freshly prepared Base Reaction Buffer • 2. Delivered any required cofactors to the substrate solution above • 3. Delivered indicated kinase into the substrate solution and gently mix • 4. Delivered compounds in DMSO into the kinase reaction mixture by Acoustic technology (Echo550; nanoliter range), incubated for 20 minutes at room temperature • 5. Delivered 33P-ATP into the reaction mixture to initiate the reaction. • 6. Incubated kinase reaction for 2 hours at room temperature • 7. Reactions were spotted onto P81 ion exchange paper • 8. Detected kinase activity by filter-binding method.
Compounds according to the present invention were tested in the Biochemical Kinase Assay Protocol. The results are provided below in Table 1, wherein the potency levels A, B, and C in the columns labeled JAK1 (range) correspond to IC50 as follows: A<10 nM; B=10-50 nM and C>50 nM. The Example Number entries formatted ##a represent stereoisomer one and entries formatted ##b represent stereoisomer two.
For the molecule `N#C[C@@H]1CCOC[C@H]1n1cc(C(N)=O)c(Nc2cc(F)c3c(c2)B(O)OC3)n1` (relative stereo) [Example 1, 1-[trans-4-cyanotetrahydro-2H-pyran-3-yl]-3-[(4-fluoro-1-hydroxy-3H-2,1-benzoxaborol-6-yl)amino]pyrazole-4-carboxamide], the IC50 lay in the range of 10 to 50 nM.
The same measure for `N#C[C@@H]1CCOC[C@H]1n1cc(C(N)=O)c(Nc2ccc3c(c2)OB(O)C=C3)n1` (relative stereo) [Example 2, 1-[trans-4-cyanotetrahydro-2H-pyran-3-yl]-3-[(2-hydroxy-1,2-benzoxaborinin-7-yl)amino]pyrazole-4-carboxamide]: above 50 nM; for `CC1=C(C)c2cc(Nc3nn([C@@H]4COCC[C@H]4C#N)cc3C(N)=O)ccc2OB1O` (relative stereo) [Example 4, 1-(trans-4-cyanotetrahydro-2H-pyran-3-yl)-3-((2-hydroxy-3,4-dimethyl-2H-benzo[e][1,2]oxaborinin-6-yl)amino)-1H-pyrazole-4-carboxamide]: below 10 nM; for `CC1=Cc2cc(Nc3nn([C@@H]4COCC[C@H]4C#N)cc3C(N)=O)ccc2OB1O` (relative stereo) [Example 5, 1-(trans-4-cyanotetrahydro-2H-pyran-3-yl)-3-((2-hydroxy-3-methyl-2H-benzo[e][1,2]oxaborinin-6-yl)amino)-1H-pyrazole-4-carboxamide]: below 10 nM.
`N#C[C@@H]1CCOC[C@H]1n1cc(C(N)=O)c(Nc2ccc3c(c2)CCOB3O)n1` (relative stereo) [Example 7, 1-(trans-4-cyanotetrahydro-2H-pyran-3-yl)-3-((1-hydroxy-3,4-dihydro-1H-benzo[c][1,2]oxaborinin-6-yl)amino)-1H-pyrazole-4-carboxamide]: the IC50 is below 10 nM.
The same measure for `N#C[C@@H]1CCC[C@H]1n1cc(C(N)=O)c(Nc2ccc3c(c2)C=CB(O)O3)n1` (relative stereo) [Example 8, 1-(trans-2-cyanocyclopentyl)-3-[(2-hydroxy-1,2-benzoxaborinin-6-yl)amino]pyrazole-4-carboxamide]: below 10 nM.
The same measure for `N#C[C@@H]1CCCC[C@H]1n1cc(C(N)=O)c(Nc2ccc3c(c2)B(O)OC3)n1` (relative stereo) [Example 9, 1-(trans-2-cyanocyclohexyl)-3-[(1-hydroxy-3H-2,1-benzoxaborol-6-yl)amino]pyrazole-4-carboxamide]: below 10 nM.
The same measure for `N#C[C@@H]1CCC[C@H]1n1cc(C(N)=O)c(Nc2ccc3c(c2)B(O)OC3)n1` (relative stereo) [Example 10, 1-(trans-2-cyanocyclopentyl)-3-[(1-hydroxy-3H-2,1-benzoxaborol-6-yl)amino]pyrazole-4-carboxamide]: 10 to 50 nM; for `N#C[C@@H]1CCCC[C@H]1n1cc(C(N)=O)c(Nc2ccc3c(c2)COB3O)n1` (relative stereo) [Example 11, 1-(trans-2-cyanocyclohexyl)-3-((1-hydroxy-1,3-dihydrobenzo[c][1,2]oxaborol-5-yl)amino)-1H-pyrazole-4-carboxamide]: below 10 nM; for `N#C[C@@H]1CCC[C@H]1n1cc(C(N)=O)c(Nc2ccc3c(c2)COB3O)n1` (relative stereo) [Example 12, 1-(trans-2-cyanocyclopentyl)-3-((1-hydroxy-1,3-dihydrobenzo[c][1,2]oxaborol-5-yl)amino)-1H-pyrazole-4-carboxamide]: below 10 nM.
Turning to `CC1=Cc2cc(Nc3nn([C@@H]4CCC[C@H]4C#N)cc3C(N)=O)cc(F)c2OB1O` (relative stereo) [Example 15, 1-(trans-2-cyanocyclopentyl)-3-[(8-fluoro-2-hydroxy-3-methyl-1,2-benzoxaborinin-6-yl)amino]pyrazole-4-carboxamide], the IC50 is below 10 nM.
The same measure for `N#C[C@@H]1CCCC[C@H]1n1cc(C(N)=O)c(Nc2ccc3c(c2)C=CB(O)O3)n1` (relative stereo) [Example 18, 1-(trans-2-cyanocyclohexyl)-3-[(2-hydroxy-1,2-benzoxaborinin-6-yl)amino]pyrazole-4-carboxamide]: below 10 nM.
On to `CC(C)(C)C1=Cc2cc(Nc3nn([C@@H]4COCC[C@H]4C#N)cc3C(N)=O)ccc2OB1O` (relative stereo) [Example 19, 3-[(3-tert-butyl-2-hydroxy-1,2-benzoxaborinin-6-yl)amino]-1-(trans-4-cyanotetrahydro-2H-pyran-3-yl)pyrazole-4-carboxamide], for which the IC50 is below 10 nM.
The same measure for `CC(C)(C)C1=Cc2cc(Nc3nn([C@@H]4CCC[C@H]4C#N)cc3C(N)=O)ccc2OB1O` (relative stereo) [Example 20, 3-[(3-tert-butyl-2-hydroxy-1,2-benzoxaborinin-6-yl)amino]-1-(trans-2-cyanocyclopentyl)pyrazole-4-carboxamide]: 10 to 50 nM.
The same measure for `CC(C)(C)C1=Cc2cc(Nc3nn([C@@H]4CCCC[C@H]4C#N)cc3C(N)=O)ccc2OB1O` (relative stereo) [Example 21, 3-[(3-tert-butyl-2-hydroxy-1,2-benzoxaborinin-6-yl)amino]-1-(trans-2-cyanocyclohexyl)pyrazole-4-carboxamide]: below 10 nM; for `N#C[C@@H]1CCOC[C@H]1n1cc(C(N)=O)c(Nc2ccc3c(c2)C=C(CCO)B(O)O3)n1` (relative stereo) [Example 22, 1-[trans-4-cyanooxan-3-yl]-3-{[2-hydroxy-3-(2-hydroxyethyl)-2H-1,2-benzoxaborinin-6-yl]amino}-1H-pyrazole-4-carboxamide]: below 10 nM.
For the molecule `CC1=C(C)c2cc(Nc3nn([C@@H]4CCC[C@H]4C#N)cc3C(N)=O)cc(C)c2OB1O` (relative stereo) [Example 24, 1-(trans-2-cyanocyclopentyl)-3-[(2-hydroxy-3,4,8-trimethyl-1,2-benzoxaborinin-6-yl)amino]pyrazole-4-carboxamide], the IC50 was 10 to 50 nM.
The same measure for `CC1=C(C)c2cc(Nc3nn([C@@H]4CCCC[C@H]4C#N)cc3C(N)=O)cc(C)c2OB1O` (relative stereo) [Example 25, 1-(trans-2-cyanocyclohexyl)-3-[(2-hydroxy-3,4,8-trimethyl-1,2-benzoxaborinin-6-yl)amino]pyrazole-4-carboxamide]: 10 to 50 nM; for `CC1=Cc2cc(Nc3nn([C@@H]4CCCC[C@H]4C#N)cc3C(N)=O)ccc2OB1O` (relative stereo) [Example 26, 1-[trans-2-cyanocyclohexyl]-3-[(2-hydroxy-3-methyl-1,2-benzoxaborinin-6-yl)amino]pyrazole-4-carboxamide]: below 10 nM; for `N#C[C@@H]1CCOC[C@H]1n1cc(C(N)=O)c(Nc2cc3c(cc2F)OB(O)C=C3)n1` (relative stereo) [Example 29, 1-(trans-4-cyanotetrahydro-2H-pyran-3-yl)-3-[(7-fluoro-2-hydroxy-1,2-benzoxaborinin-6-yl)amino]pyrazole-4-carboxamide]: 10 to 50 nM.
The same measure for `Cc1cc(Nc2nn([C@@H]3CCC[C@H]3C#N)cc2C(N)=O)cc2c1OB(O)C=C2` (relative stereo) [Example 31, 1-(trans-2-cyanocyclopentyl)-3-[(2-hydroxy-8-methyl-1,2-benzoxaborinin-6-yl)amino]pyrazole-4-carboxamide]: below 10 nM; for `CC1=Cc2cc(Nc3nn([C@@H]4COCC[C@H]4C#N)cc3C(N)=O)cc(C)c2OB1O` (relative stereo) [Example 32, 1-[trans-4-cyanotetrahydro-2H-pyran-3-yl]-3-[(2-hydroxy-3,8-dimethyl-1,2-benzoxaborinin-6-yl)amino]pyrazole-4-carboxamide]: below 10 nM.
The same measure for `CCC1=CB(O)Oc2ccc(Nc3nn([C@@H]4COCC[C@H]4C#N)cc3C(N)=O)cc21` (relative stereo) [Example 33, 1-(trans-4-cyanotetrahydro-2H-pyran-3-yl)-3-[(4-ethyl-2-hydroxy-1,2-benzoxaborinin-6-yl)amino]pyrazole-4-carboxamide]: below 10 nM; for `CC(C)C1=CB(O)Oc2ccc(Nc3nn([C@@H]4CCCC[C@H]4C#N)cc3C(N)=O)cc21` (relative stereo) [Example 34, 1-(trans-2-cyanocyclohexyl)-3-[(2-hydroxy-4-isopropyl-1,2-benzoxaborinin-6-yl)amino]pyrazole-4-carboxamide]: 10 to 50 nM.
Regarding `CC(C)C1=CB(O)Oc2ccc(Nc3nn([C@@H]4CCC[C@H]4C#N)cc3C(N)=O)cc21` (relative stereo) [Example 35, 1-(trans-2-cyanocyclopentyl)-3-[(2-hydroxy-4-isopropyl-1,2-benzoxaborinin-6-yl)amino]pyrazole-4-carboxamide], the IC50 is 10 to 50 nM.
The same measure for `CCC1=C(CC)c2cc(Nc3nn([C@@H]4COCC[C@H]4C#N)cc3C(N)=O)ccc2OB1O` (relative stereo) [Example 39, 1-(trans-4-cyanotetrahydro-2H-pyran-3-yl)-3-[(3,4-diethyl-2-hydroxy-1,2-benzoxaborinin-6-yl)amino]pyrazole-4-carboxamide]: below 10 nM; for `CCC1=C(CC)c2cc(Nc3nn([C@@H]4CCC[C@H]4C#N)cc3C(N)=O)ccc2OB1O` (relative stereo) [Example 40, 1-(trans-2-cyanocyclopentyl)-3-[(3,4-diethyl-2-hydroxy-1,2-benzoxaborinin-6-yl)amino]pyrazole-4-carboxamide]: 10 to 50 nM.
